The values that follow come from publication PMC11271247 (SLAS discovery : advancing life sciences R & D, 2019).

The test system of data set [1] is SKOV/NIH microtissues (SKOV-3 ovarian cancer cells + NIH3T3 fibroblasts). The class given is cell-based, human. The note with it: read-out: IC50 ATP; SKOV/NIH spheroids, ATP content at treatment day 7.
Data set [2] concerns PANC/NIH microtissues (PANC-1 pancreatic cancer cells + NIH3T3 fibroblasts). The class given is cell-based, human. The conditions noted are these: read-out: IC50 ATP; PANC/NIH spheroids, ATP content at treatment day 7.
The test system of data set [3] is HEY/NIH microtissues (HEY-GFP ovarian cancer cells + NIH3T3 fibroblasts). It counts as cell-based, human. The conditions noted are these: read-out: IC50 ATP; HEY/NIH spheroids, ATP content at treatment day 7.
Data set [4] deals with NIH3T3 fibroblasts within HEY/NIH microtissues. The note with it: day 3.
The test system of data set [5] is HEY/NIH3T3 microtissues. Put plainly: Microtissue size over time, HEY/NIH microtissues. The note with it: HEY/NIH3T3, % maximal response at 20 μM. The class given is cell-based, human.
The subject of data set [6] is NIH3T3 fibroblasts within SKOV/NIH microtissues.
The test system of data set [7] is NIH3T3 fibroblasts within PANC/NIH microtissues. It counts as cell-based, mouse. The conditions noted are these: PANC1/NIH, day 3 (acute toxicity).

As a reminder, the IC50 is the concentration needed to halve the response being measured. As to `C=CC(=O)Nc1cc2c(Nc3ccc(F)c(Cl)c3)ncnc2cc1C#CC(C)(C)N1CCN(C)CC1` [AV-412], the values for the IC50 in data set [1], in data set [2] and in data set [3] were 80 nM, 2440 nM and 1290 nM, respectively. In the case of `COC(=O)[C@]12CCC(C)(C)C[C@H]1[C@H]1C(=O)C=C3[C@@]4(C)C=C(C#N)C(=O)C(C)(C)[C@@H]4CC[C@@]3(C)[C@]1(C)CC2` [Bardoxolone methyl], in data set [2], the IC50 worked out at 1340 nM. As for `CC(C)C[C@H](NC(=O)[C@H](CCc1ccccc1)NC(=O)CN1CCOCC1)C(=O)N[C@@H](Cc1ccccc1)C(=O)N[C@@H](CC(C)C)C(=O)[C@@]1(C)CO1` [Carfilzomib], the “therapeutic window, ratio of adverse to therapeutic effect” value in data set [4] was determined as 578 fold.

As for `O=C1C(Cl)=C(NCCN2CCOCC2)C(=O)c2ncccc21` [DA-3003-1], in data set [3], the IC50 amounted to 7360 nM. For `Cc1nc(Nc2ncc(C(=O)Nc3c(C)cccc3Cl)s2)cc(N2CCN(CCO)CC2)n1` [Dasatinib], in data set [5], the “effect on tumor size early in the treatment” value (from here on “effect on tumor size early”) is reported as “reduce tumor size”.

`CNC(=O)[C@H](Cc1c[nH]c2ccccc12)NC(=O)[C@@H](CC(=O)NO)CC(C)C` [GM-6001]: the IC50 in data set [1] is 3860 nM; in data set [2], 9610 nM. `CC1=C(C(=O)Nc2cc3cn[nH]c3cc2F)C(c2ccc(Cl)cc2F)N=C(c2ccnc(Cl)c2)N1` (centres unmarked) [GSK-25]: the values for the IC50 in data set [1], in data set [2] and in data set [3] were 4830 nM, 9380 nM and 6100 nM, respectively. For the compound `CN(C)CCCN=c1c2ccccc2n(C)c2[nH]c(=O)n(C)c(=O)c12` [HLI-373989], in data set [3], the IC50 was determined as 3760 nM. Take `CSc1cccc(Nc2ncc3cc(-c4c(Cl)cccc4Cl)c(=O)n(C)c3n2)c1` [PD-173955]: the IC50 in data set [3] turned out to be 479 nM. In the case of `Cc1ccc(/C=N/NC(=O)c2ccccc2Oc2ccccc2)o1` [PNU-74654], the IC50 in data set [1] came out at 2840 nM. With `C/C=C1\NC(=O)[C@H]2CSSCC/C=C/[C@H](CC(=O)N[C@H](C(C)C)C(=O)N2)OC(=O)[C@H](C(C)C)NC1=O` [Romidepsin], in data set [6], the “viability of the stromal cells” value is “significantly lowered the viability of the stromal cells”. Consider `O=C(O)C1CCCN(CCC=C(c2ccccc2)c2ccccc2)C1` (centres unmarked) [SK&F-89976A], for which the IC50 in data set [3] worked out at 15300 nM. Turning to `Cc1ccc(-c2ncn(-c3ccc(Nc4nccc(-c5cccc(N6CCOCC6)c5)n4)cc3)n2)cn1` [SR-3306], the IC50 in data set [1] came out at 13 nM; in data set [2], 22 nM; in data set [3] it was 58 nM. As for `Cn1c(=O)c(F)c(Nc2ccc(I)cc2F)c2c(=O)n(C[C@@H](O)CO)cnc21` [TAK-733], in data set [5], the “effect on tumor size early” value was “reduce tumor size”.

Take `Nc1ccc(-c2ccc3ncc4ccc(=O)n(-c5cccc(C(F)(F)F)c5)c4c3c2)cn1` [Torin-2]: the results for the IC50 in data set [1], in data set [2] and in data set [3] were 2 nM, 1 nM and 27 nM, respectively. In addition, the “therapeutic window, ratio of adverse to therapeutic effect” value in data set [7] is listed as 5,524 fold. As for `c1cncc(CN2CCC(n3ncc4c(N5CCOCC5)nc(-c5ccc6[nH]ccc6c5)nc43)CC2)c1` [WAY-600], the IC50 in data set [1] came out at 507 nM; in data set [2] it was 7380 nM; in data set [3], 1680 nM. Moreover, the “effect on tumor size early” value in data set [5] is listed as “reduce tumor size”.
